The test system of test [1] is reserpine-induced hypothermia. Nature of the test: Reserpine-induced hypothermia in the rat. The settings on record: reserpine 5 mg/kg i.p., mean to 6th hour vs controls. Type of test: in vivo, male rats CF1.
Description: (§1) The thymoanaleptic properties of the compounds of the invention were determined by means of reserpine-induced ptosis and hypothermia in the rat.
An intraperitoneal dose of 5 mg/kg of reserpine was administered to batches of 5 male rats CF1 weighing an average of 300 g. Thirty minutes later, the rectal temperature was determined and then a dose of the compound to be tested was given by oral route, except to the control animals. The rectal temperature of all the animals including the controls was taken every hour up to the 6th hour.
The difference between these two averages enabled an estimation to be made regarding the antagonistic effect of the compounds of the invention on the hypothermia induced by reserpine.
A further test relates to reserpine-induced ptosis. Nature of the test: Reserpine-induced ptosis in the rat. Type of test: in vivo, male rats of the CF1 strain. The following applies: reserpine 5 mg/kg i.p., score scale 0-4, mean to 6th hour vs controls.
A further test relates to toxicity of yohimbine. Nature of the test: Potentiation of the toxicity of yohimbine (test of QUINTON). Type of test: in vivo, male mice. The following applies: Mus musculus; 50 mg/kg oral; yohimbine hydrochloride 25 mg/kg i.p.; mortality after 24 hours. The protocol:
Yohimbine is a substance which provokes an increase in the serotonine level in the brain or a decrease in norepinephrine according to the author.
For this purpose, the test of QUINTON was used which is described in Brit. J. Pharmacol. 21, 51 (1963). […] […] The percentage of mortality was noted after 24 hours.
Table III hereunder expresses the percentage of potentiation of the toxicity due to yohimbine in comparison with the controls.
The percentage in question was determined 24 hours after the administration of yohimbine.

Test [2] has as its system stereotypies induced by amphetamine. Nature of the test: Potentiation of the stereotypies induced by amphetamine. Type of test: in vivo, rats. The settings on record: 10 mg/kg oral; amphetamine 10 mg/kg i.p.; every 30 min for 150 min. The protocol: It is commonly admitted that amphetamine induces stereotypies by stimulating the dopaminergic receptors and inhibiting the re-uptake of dopamine into the neuron.
The thymoanaleptics potentiate these stereotypies.
Thirty minutes later, a dose of 10 mg/kg of the compound to be tested was given by oral route. Note was taken of the intensity of the stereotypies every 30 minutes for 150 minutes in accordance with the following scale which indicates the behaviour of the animal.
0 : the rat is motionless and asleep
1 : the rat is motionless and awake
3 : the rat stands on its hind paws and sniffs the lid of its cage in a stereotyped manner.
4 : the rat licks the walls of its cage in a stereotyped manner
5 : the rat bites the bars of its cage or sniffs the shavings of its litter in a stereotyped manner
6 : the rat chews the shavings in a stereotyped manner
The average of the 5 results obtained for each batch was calculated and compared with the average obtained with the control animals.
The difference between these averages represents the mean increase of the steroetypies of the treated animals in comparison with the controls.

Each structure is given as a SMILES string.

Description for reserpine-induced ptosis: as §1
An intraperitoneal dose of 5 mg/kg of reserpine was administered to batches of 5 male rats of the CF1 strain weighing an average of 300 g.
Thirty minutes later a dose of the compound to be studied was given by oral route and the inhibitory effect of the reserpine was noted every hour up to the sixth hour. Ptosis was evaluated for each eye in accordance with the following scale:
4 : eyelids completely closed.
The difference between these two averages represents the average decrease of the ptosis in the treated animals as compared to the controls.

On to `Cc1oc2ccc(OCCC(N)=NO)cc2c1C` [Compound 23, 3-(2,3-Dimethyl-5-benzofuryloxy)-propionamidoxime], for which the “Average inhibition of hypothermia (positive °C)” value (“Average inhibition” for short) in test [1] (10 mg/kg oral) worked out at 0.3 °C. In the test on reserpine-induced ptosis (10 mg/kg oral), the “Average decrease of Ptosis” value came out at 0.2.

For `Cc1oc2ccc(OCC(N)=NO)cc2c1C` [Compound 15, 2-(2,3-Dimethyl-5-benzofuryloxy)-acetamidoxime], the mortality at 50 mg/kg with toxicity of yohimbine was determined as 10%. The “Average decrease of Ptosis” value in the test on reserpine-induced ptosis (10 mg/kg oral) turned out to be 0.5. Moreover, in test [2], the “Average increase of the stereotypies” value is 1.

Consider `CCC(Oc1c(C(C)C)oc2ccccc12)C(N)=NO` (stereo not drawn) [Compound 20, 2(2-Isopropyl-3-benzofuryloxy)-butyramidoxime], for which, in test [1] (10 mg/kg oral), the “Average inhibition” value came out at 0.8 °C. In addition, the “Average decrease of Ptosis” value in the test with reserpine-induced ptosis (10 mg/kg oral) amounted to 0.3.

Consider `CCC(Oc1cccc2ccoc12)C(N)=NO` (stereo not drawn) [Compound 42, 2-(7-Benzofuryloxy)-butyramidoxime], for which, in the test with toxicity of yohimbine, the mortality at 50 mg/kg was 60%.

For `Cc1cc2cc(OCCC(N)=NO)ccc2o1` [Compound 32, 3-(2-Methyl-5-benzofuryloxy)-propionamidoxime], the “Average decrease of Ptosis” value in the test on reserpine-induced ptosis (100 mg/kg oral) is given as 2.3.

As to `CC(C)(Oc1cccc2ccccc12)C(N)=NO` [Compound 11, 2-(1-Naphtyloxy)-2-methyl-propionamidoxime], the “Average inhibition” value in test [1] (20 mg/kg oral) came to 0.5 °C. Further, the “Average decrease of Ptosis” value in the test with reserpine-induced ptosis (10 mg/kg oral) is reported as 0.7.

`Cc1oc2ccccc2c1OCCC(N)=NO` [Compound 19, 3-(2-Methyl-3-benzofuryloxy)-propionamidoxime]: the mortality at 50 mg/kg in the test with toxicity of yohimbine was determined as 10%. For the same compound, in the test with reserpine-induced ptosis (10 mg/kg oral), the “Average decrease of Ptosis” value stood at 0.3.

For the compound `CCc1oc2ccccc2c1OC(CC)C(N)=NO` (stereo not drawn) [Compound 10, 2-(2-Ethyl-3-benzofuryloxy)-butyramidoxime], in the test on toxicity of yohimbine, the mortality at 50 mg/kg came out at 10%. Further, in the test with reserpine-induced ptosis (10 mg/kg oral), the “Average decrease of Ptosis” value is on record as 0.8. The “Average increase of the stereotypies” value in test [2] worked out at 5.6.

On to `CCc1oc2ccccc2c1OCC(N)=NO` [Compound 27, 2-(2-Ethyl-3-benzofuryloxy)-acetamidoxime], for which the mortality at 50 mg/kg in the test with toxicity of yohimbine stood at 20%. The “Average decrease of Ptosis” value in the test on reserpine-induced ptosis (20 mg/kg oral) is recorded as 0.3.

As to `CCC(Oc1cccc2c(C)c(C)oc12)C(N)=NO` (stereo not drawn) [Compound 41, 2-(2,3-Dimethyl-7-benzofuryloxy)-butyramidoxime], the “Average inhibition” value in test [1] (100 mg/kg oral) is 1.1 °C.

On to `Cc1oc2ccccc2c1OC(C)C(N)=NO` (stereo not drawn) [Compound 16, 2-(2-Methyl-3-benzofuryloxy)-propionamidoxime], for which, in the test with reserpine-induced ptosis (10 mg/kg oral), the “Average decrease of Ptosis” value is reported as 0.5.

With `CC(C)(Oc1ccc2ccccc2c1)C(N)=NO` [Compound 40, 2-(2-Naphthyloxy)-2-methyl-propionamidoxime], the “Average inhibition” value in test [1] (10 mg/kg oral) is 0.2 °C.

For `Cc1oc2c(OC(C)C(N)=NO)cccc2c1C` (stereo not drawn) [Compound 44, 2-(2,3-Dimethyl-7-benzofuryloxy)-propionamidoxime], the mortality at 50 mg/kg in the test with toxicity of yohimbine worked out at 40%.

For the compound `NC(COc1ccc2ccoc2c1)=NO` [Compound 25, 2-(6-Benzofuryloxy)-acetamidoxime], in the test on toxicity of yohimbine, the mortality at 50 mg/kg came to 30%. Besides, the “Average decrease of Ptosis” value in the test with reserpine-induced ptosis (10 mg/kg oral) is listed as 0.2. For the same compound, the “Average increase of the stereotypies” value in test [2] was determined as 4.4.

Turning to `CCC(Oc1cccc2occc12)C(N)=NO` (stereo not drawn) [Compound 43, 2-(4-Benzofuryloxy)-butyramidoxime], the mortality at 50 mg/kg with toxicity of yohimbine was 60%. For the same compound, the “Average increase of the stereotypies” value in test [2] was determined as 5.5.

`CC(Oc1cccc2c1OCCO2)C(N)=NO` (stereo not drawn) [Compound 45, 2-[(1,4-Benzodioxanyl)-5-oxy]-propionamidoxime]: the mortality at 50 mg/kg with toxicity of yohimbine is 10%. Further, the “Average increase of the stereotypies” value in test [2] turned out to be 3.

For `CCC(Oc1ccc2ccoc2c1)C(N)=NO` (stereo not drawn) [Compound 31, 2-(6-Benzofuryloxy)-butyramidoxime], the “Average decrease of Ptosis” value in the test with reserpine-induced ptosis (100 mg/kg oral) is reported as 2.3.

On to `Cc1oc2cc(OCC(N)=NO)ccc2c1C` [Compound 21, 2-(2,3-Dimethyl-6-benzofuryloxy)-acetamidoxime], for which the mortality at 50 mg/kg in the test on toxicity of yohimbine was determined as 40%. In addition, the “Average decrease of Ptosis” value in the test with reserpine-induced ptosis (10 mg/kg oral) was 0.3. Moreover, in test [2], the “Average increase of the stereotypies” value came out at 4.2.

These data come from US3984470A, “Amidoxime derivatives and process for preparing the same” (priority 1974, dated 1976).
